Where two headings read alike, the source gives them in different places.
Experiments:
subjects with MDD [1] = test: MADRS total score, adjunctive aticaprant vs placebo in MDD (Example 6)
[2] = Plasma Cmax of aticaprant in subjects with MDD (Example 6); format: in vivo; conditions: human, oral, 10 mg, 10 mg once daily, read-out: Cmax, Arithmetic Mean (SD)
Text: vi. To assess the plasma PK of aticaprant in subjects with MDD and explore its relationship with efficacy and safety parameters.
Cmax is defined as maximum plasma concentration of aticaprant. […] Here ‘N’ (number of subjects analyzed) includes the number of subjects evaluable for this endpoint. Here ‘n’ (number analyzed) included all subjects evaluable for specified time point categories.

subjects with MDD [3] = test: Treatment-emergent adverse events, full safety analysis set (Example 6); format: in vivo, human
[4] = fITT Analysis Set, High anhedonia, Treatment Week 4
[5] = fITT Analysis Set, High anhedonia, Treatment Week 5
[6] = fITT Analysis Set, High anhedonia, Treatment Week 6
[7] = fITT Analysis Set, Low anhedonia, Treatment Week 1
[8] = fITT Analysis Set, Low anhedonia, Treatment Week 3
[9] = fITT Analysis Set, Low anhedonia, Treatment Week 4
[10] = fITT Analysis Set, Low anhedonia, Treatment Week 5
[11] = fITT Analysis Set, Low anhedonia, Treatment Week 6
[12] = fITT, Treatment Week 1, 10 mg adjunctive to SSRI/SNRI
[13] = fITT, Treatment Week 3, 10 mg adjunctive to SSRI/SNRI
[14] = fITT, Treatment Week 4, 10 mg adjunctive to SSRI/SNRI
[15] = fITT, Treatment Week 5, 10 mg adjunctive to SSRI/SNRI
[16] = fITT, Treatment Week 6, 10 mg adjunctive to SSRI/SNRI
[17] = fITT, Treatment Week 6, high anhedonia level
[18] = fITT, Treatment Week 6, low anhedonia level
[19] = TEAE in >= 5% of subjects, Treatment Period, Full Safety Analysis Set, aticaprant 10 mg (N = 85), Table 40
[20] = TEAE of Special Interest, Treatment Period, Full Safety Analysis Set, aticaprant 10 mg (N = 85), Table 41
[21] = Treatment Period, Full Safety Analysis Set, aticaprant 10 mg (N = 85)

Cc1cc(C)cc(C2CCCN2Cc2ccc(Oc3ccc(C(N)=O)cc3F)cc2)c1 (stereo not shown) [aticaprant, 3-fluoro-4-4-2-(3,5-dimethylphenyl)pyrrolidin-1-yl-methylphenoxybenzamide]
MADRS Total Score Mean Change from Baseline (SD) (subjects with MDD [1]; [4]): −8.6 (7.32) | MADRS Total Score Mean Change to Placebo (SD pooled) (subjects with MDD [1]; [4]): −3.8 (7.56) | MADRS Total Score Effect size (subjects with MDD [1]; [5]): −0.51 | MADRS Total Score Mean Change from Baseline (SD) (subjects with MDD [1]; [5]): −10.2 (8.04) | MADRS Total Score Mean Change to Placebo (SD pooled) (subjects with MDD [1]; [5]): −4.0 (7.87) | MADRS Total Score Effect size (subjects with MDD [1]; [6]): −0.51 | MADRS Total Score Mean Change from Baseline (SD) (subjects with MDD [1]; [6]): −11.3 (8.69) | MADRS Total Score Mean Change to Placebo (SD pooled) (subjects with MDD [1]; [6]): −4.6 (9.03) | MADRS Total Score Effect size (subjects with MDD [1]; [7]): −0.24 | MADRS Total Score Mean Change from Baseline (SD) (subjects with MDD [1]; [7]): −2.4 (4.59) | MADRS Total Score Mean Change to Placebo (SD pooled) (subjects with MDD [1]; [7]): −1.0 (4.39) | MADRS Total Score Effect size (subjects with MDD [1]; [8]): −0.08 | MADRS Total Score Mean Change from Baseline (SD) (subjects with MDD [1]; [8]): −4.1 (6.67) | MADRS Total Score Mean Change to Placebo (SD pooled) (subjects with MDD [1]; [8]): −0.5 (6.37) | MADRS Total Score Effect size (subjects with MDD [1]; [9]): −0.23 | MADRS Total Score Mean Change from Baseline (SD) (subjects with MDD [1]; [9]): −6.4 (6.77) | MADRS Total Score Mean Change to Placebo (SD pooled) (subjects with MDD [1]; [9]): −1.5 (6.65) | MADRS Total Score Effect size (subjects with MDD [1]; [10]): −0.10 | MADRS Total Score Mean Change from Baseline (SD) (subjects with MDD [1]; [10]): −7.3 (6.90) | MADRS Total Score Mean Change to Placebo (SD pooled) (subjects with MDD [1]; [10]): −0.7 (6.86) | MADRS Total Score Effect size (subjects with MDD [1]; [11]): −0.29 | MADRS Total Score Mean Change from Baseline (SD) (subjects with MDD [1]; [11]): −8.8 (7.48) | MADRS Total Score Mean Change to Placebo (SD pooled) (subjects with MDD [1]; [11]): −2.3 (7.80) | MADRS Total Score Change from Baseline Mean (SD) (subjects with MDD [1]; [12]): −3.1 | MADRS Total Score Mean (SD) (subjects with MDD [1]; [12]): 21.7 | MADRS Total Score Mean Change to Placebo (SD pooled) (subjects with MDD [1]; [12]): −1.3 (4.43) | MADRS Total Score Effect size (subjects with MDD [1]; fITT, Treatment Week 1, vs placebo, negative favors aticaprant): −0.29 | MADRS Total Score Change from Baseline Mean (SD) (subjects with MDD [1]; [13]): −5.1 | MADRS Total Score Mean (SD) (subjects with MDD [1]; [13]): 20.0 | MADRS Total Score Mean Change to Placebo (SD pooled) (subjects with MDD [1]; [13]): −1.7 (6.62) | MADRS Total Score Effect size (subjects with MDD [1]; fITT, Treatment Week 3, vs placebo, negative favors aticaprant): −0.26 | MADRS Total Score Change from Baseline Mean (SD) (subjects with MDD [1]; [14]): −7.2 | MADRS Total Score Mean (SD) (subjects with MDD [1]; [14]): 17.9 | MADRS Total Score Mean Change to Placebo (SD pooled) (subjects with MDD [1]; [14]): −2.3 (7.02) | MADRS Total Score Effect size (subjects with MDD [1]; fITT, Treatment Week 4, vs placebo, negative favors aticaprant): −0.32 | MADRS Total Score Change from Baseline Mean (SD) (subjects with MDD [1]; [15]): −8.3 | MADRS Total Score Mean (SD) (subjects with MDD [1]; [15]): 16.7 | MADRS Total Score Mean Change to Placebo (SD pooled) (subjects with MDD [1]; [15]): −1.9 (7.31) | MADRS Total Score Effect size (subjects with MDD [1]; fITT, Treatment Week 5, vs placebo, negative favors aticaprant): −0.26 | percentage of subjects with MADRS remission (MADRS total score ≤10) (subjects with MDD [1]; fITT, Treatment Week 6): 31.2% | percentage of subjects with ≥30% improvement in MADRS total score (subjects with MDD [1]; fITT, Treatment Week 6): 61.8% | percentage of subjects with ≥50% improvement in MADRS total score (subjects with MDD [1]; fITT, Treatment Week 6): 38.2% | MADRS Total Score Mean (SD) (subjects with MDD [1]; [16]): 15.9 | MADRS Total Score Mean Change to Placebo (SD pooled) (subjects with MDD [1]; [16]): −3.0 (8.31) | MADRS total score change, difference between aticaprant and placebo (subjects with MDD [1]; [17]): −4.6 | MADRS total score observed effect size (subjects with MDD [1]; [17]): 0.51 | MADRS total score change, difference between aticaprant and placebo (subjects with MDD [1]; [18]): −2.3 | MADRS total score observed effect size (subjects with MDD [1]; [18]): 0.29 | MADRS Total Score Effect size (subjects with MDD [1]; fITT, Treatment Week 6, vs placebo, negative favors aticaprant): 0.36 | MADRS Total Score Effect size (subjects with MDD [1]; fITT, Treatment Week 6, vs placebo, negative favors aticaprant, listed as Aticaprant): −0.36 | onset of significant treatment effect favoring aticaprant (MADRS least squares mean change, FIG. 10-B) (subjects with MDD [1]; fITT, vs placebo): 3 week | MADRS LSMeans difference estimate, supplementary analysis of data collected prior to 15 Mar. 2020 (COVID-19) (subjects with MDD [1]; fITT, vs placebo, MMRM): −3.4 | Cmax ([2]; Week 1, eITT): 32.7 ± 10.9 ng/mL | Cmax ([2]; Week 3, eITT): 33.5 ± 11.1 ng/mL | Cmax ([2]; Week 6, eITT): 34.3 ± 11.1 ng/mL | Diarrhea, % (subjects with MDD [3]; [19]): 8% | Gastrointestinal Disorders, % (subjects with MDD [3]; [19]): 14% | Headache, % (subjects with MDD [3]; [19]): 12% | Infections And Infestations, % (subjects with MDD [3]; [19]): 15% | Nasopharyngitis, % (subjects with MDD [3]; [19]): 6% | Nervous System Disorders, % (subjects with MDD [3]; [19]): 15% | Pruritus, % (subjects with MDD [3]; [19]): 6% | Skin And Subcutaneous Tissue Disorders, % (subjects with MDD [3]; [19]): 7% | Total no. Subjects with Adverse Events, % (subjects with MDD [3]; [19]): 47% | Abdominal Pain, % (subjects with MDD [3]; [20]): 1.2% | Diarrhea, % (subjects with MDD [3]; [20]): 8.2% | Dyspepsia, % (subjects with MDD [3]; [20]): 1.2% | Gastrointestinal Disorders, % (subjects with MDD [3]; [20]): 10.6% | Pruritus, % (subjects with MDD [3]; [20]): 5.9% | Skin And Subcutaneous Tissue Disorders, % (subjects with MDD [3]; [20]): 5.9% | Total no. Subjects with Adverse Events of Special Interest, % (subjects with MDD [3]; [20]): 15.3% | Subjects with TEAE leading to discontinuation of agent, % (subjects with MDD [3]; [21]): (1.2) % | Total subjects affected by non-serious adverse events, % (subjects with MDD [3]; [21]): (27.1%) | Subjects with 1 or more TEAE, % (subjects with MDD [3]; Treatment Period, Full Safety Analysis Set, aticaprant 10 mg (N = 85), Table 39): (47.1) % | Subjects with drug-related TEAE, % (subjects with MDD [3]; Treatment Period, Full Safety Analysis Set, aticaprant 10 mg (N = 85), possible, probable, very likely): (23.5) % | subjects who discontinued during the treatment period due to TEAEs (subjects with MDD [3]; due to diarrhea, nausea, vomiting and headache): 1 subject | subjects with at least one TEAE during the treatment period (subjects with MDD [3]; full safety analysis set, 40/85 subjects): 47.1% | patients with acute cholecystitis (subjects with MDD [3]; treatment period): 0 patients | subjects with pruritus (TEAE of special interest) (subjects with MDD [3]; treatment period, 5/85 subjects): 5.9% | subjects with diarrhea (TEAE) (subjects with MDD [3]; treatment period, 7/85 subjects): 8.2% | subjects with headache (TEAE) (subjects with MDD [3]; treatment period, 10/85 subjects): 11.8% | subjects with TEAEs of special interest (subjects with MDD [3]; treatment period, 13/85 subjects): 15.3%

— patent US12201610B2, “Compositions comprising aticaprant” (Janssen Pharmaceuticals, Inc., priority 2022, dated 2025)
